Experimental data from patent US12227500B2, “Substituted pyrrolo[2,3-b]pyridines for suppressing toxic endoplasmic reticulum stress” (THE TRUSTEES OF COLUMBIA UNIVERSITY IN THE CITY OF NEW YORK, priority 2018, dated 2025).
Like-named read-outs stand apart in the source and are kept apart here.

How the values were obtained:
Assay in all cases: Radiolabeled ATP kinase assay, panel of 371 kinases (Table S6)
Type in all cases: biochemical
[1] = molecular target: T1, panel of 371 human kinases (Homo sapiens, UniProt O96017); conditions: CHK2; 0.1 μM; 10 μM ATP; read-out: % Enzyme Activity (relative to DMSO controls)
T1 construct: purchased Reaction Biology Corp
T1 sequence (O96017 whole entry): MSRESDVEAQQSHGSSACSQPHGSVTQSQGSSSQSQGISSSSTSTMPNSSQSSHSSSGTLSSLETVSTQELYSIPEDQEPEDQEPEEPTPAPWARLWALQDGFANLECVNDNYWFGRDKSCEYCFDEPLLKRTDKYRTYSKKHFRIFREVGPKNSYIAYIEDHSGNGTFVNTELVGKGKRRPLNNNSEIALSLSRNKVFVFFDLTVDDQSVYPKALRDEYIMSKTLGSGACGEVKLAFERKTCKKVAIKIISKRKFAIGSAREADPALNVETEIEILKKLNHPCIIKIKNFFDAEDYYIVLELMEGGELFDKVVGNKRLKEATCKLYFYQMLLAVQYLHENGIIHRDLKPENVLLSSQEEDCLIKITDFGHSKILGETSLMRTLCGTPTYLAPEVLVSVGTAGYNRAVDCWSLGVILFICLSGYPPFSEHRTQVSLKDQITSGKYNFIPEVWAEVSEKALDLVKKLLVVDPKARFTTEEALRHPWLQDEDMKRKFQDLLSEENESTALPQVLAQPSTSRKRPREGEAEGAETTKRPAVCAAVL
From the text: (§1) ; FIG. 38C). […]. Further targeted analyses, such as genetic knock-down or knock-out, may be warranted to parse the role of these additional kinases in our model of neurodegeneration.

[2] = molecular target: T2, panel of 371 human kinases (Homo sapiens, UniProt Q9H3Y6); conditions: SRMS; 0.1 μM; 10 μM ATP; read-out: % Enzyme Activity (relative to DMSO controls)
T2 construct: purchased Reaction Biology Corp
From the text: as §1

[3] = molecular target: T3, panel of 371 human kinases (Homo sapiens, UniProt Q00534); conditions: 0.1 μM, 10 μM ATP, read-out: % Enzyme Activity (relative to DMSO controls)
T3 construct: purchased Reaction Biology Corp
T3 sequence (Q00534 whole entry): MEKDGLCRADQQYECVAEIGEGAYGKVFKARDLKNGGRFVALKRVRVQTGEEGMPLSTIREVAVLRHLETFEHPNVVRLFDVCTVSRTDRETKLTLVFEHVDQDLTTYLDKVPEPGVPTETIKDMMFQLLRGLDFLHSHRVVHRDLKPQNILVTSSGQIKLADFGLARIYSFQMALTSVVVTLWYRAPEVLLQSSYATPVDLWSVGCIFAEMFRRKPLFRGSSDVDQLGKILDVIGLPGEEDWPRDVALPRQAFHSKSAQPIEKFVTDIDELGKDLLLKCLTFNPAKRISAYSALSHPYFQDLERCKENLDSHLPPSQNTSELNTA
From the text: as §1

[4] = molecular target: T4, panel of 371 human kinases (Homo sapiens, UniProt Q9NWZ3); conditions: IRAK4; 0.1 μM; 10 μM ATP; read-out: % Enzyme Activity (relative to DMSO controls)
T4 construct: purchased Reaction Biology Corp
T4 sequence (Q9NWZ3 whole entry): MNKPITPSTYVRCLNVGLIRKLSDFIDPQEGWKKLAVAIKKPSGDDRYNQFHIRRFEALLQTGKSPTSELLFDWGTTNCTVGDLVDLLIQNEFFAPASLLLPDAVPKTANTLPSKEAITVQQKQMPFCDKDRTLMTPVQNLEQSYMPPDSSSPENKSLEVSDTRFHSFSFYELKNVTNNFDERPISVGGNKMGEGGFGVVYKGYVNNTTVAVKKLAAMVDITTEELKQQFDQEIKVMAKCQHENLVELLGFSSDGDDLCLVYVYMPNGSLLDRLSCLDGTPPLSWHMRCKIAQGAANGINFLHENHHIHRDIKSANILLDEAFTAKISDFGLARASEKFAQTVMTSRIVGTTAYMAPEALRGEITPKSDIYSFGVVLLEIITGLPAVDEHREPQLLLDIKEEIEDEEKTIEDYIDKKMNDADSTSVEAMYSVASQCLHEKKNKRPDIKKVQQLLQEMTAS
From the text: as §1

[5] = molecular target: T5, panel of 371 human kinases (Homo sapiens, UniProt Q9P289); conditions: MST4; 0.1 μM; 10 μM ATP; read-out: % Enzyme Activity (relative to DMSO controls)
T5 construct: purchased Reaction Biology Corp
T5 sequence (Q9P289 whole entry): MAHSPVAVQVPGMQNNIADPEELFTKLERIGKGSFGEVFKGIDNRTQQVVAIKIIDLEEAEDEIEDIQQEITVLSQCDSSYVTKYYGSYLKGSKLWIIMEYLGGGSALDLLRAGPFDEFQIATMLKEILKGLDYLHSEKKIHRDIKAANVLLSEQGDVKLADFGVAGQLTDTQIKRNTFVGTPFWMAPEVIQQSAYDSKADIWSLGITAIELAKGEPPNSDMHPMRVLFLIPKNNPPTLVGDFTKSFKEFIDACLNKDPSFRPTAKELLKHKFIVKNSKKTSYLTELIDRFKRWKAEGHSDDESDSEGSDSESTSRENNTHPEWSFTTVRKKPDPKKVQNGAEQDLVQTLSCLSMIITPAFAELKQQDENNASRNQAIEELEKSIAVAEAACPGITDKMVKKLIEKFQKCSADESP
From the text: as §1

[6] = molecular target: T6, panel of 371 human kinases (Homo sapiens, UniProt P36896); conditions: ALK4/ACVR1B; 0.1 μM; 10 μM ATP; read-out: % Enzyme Activity (relative to DMSO controls)
T6 construct: purchased Reaction Biology Corp
From the text: as §1

[7] = molecular target: T7, panel of 371 human kinases (Homo sapiens, UniProt Q9UQM7); conditions: CAMK2a; 0.1 μM; 10 μM ATP; read-out: % Enzyme Activity (relative to DMSO controls)
T7 construct: purchased Reaction Biology Corp
T7 sequence (Q9UQM7 whole entry): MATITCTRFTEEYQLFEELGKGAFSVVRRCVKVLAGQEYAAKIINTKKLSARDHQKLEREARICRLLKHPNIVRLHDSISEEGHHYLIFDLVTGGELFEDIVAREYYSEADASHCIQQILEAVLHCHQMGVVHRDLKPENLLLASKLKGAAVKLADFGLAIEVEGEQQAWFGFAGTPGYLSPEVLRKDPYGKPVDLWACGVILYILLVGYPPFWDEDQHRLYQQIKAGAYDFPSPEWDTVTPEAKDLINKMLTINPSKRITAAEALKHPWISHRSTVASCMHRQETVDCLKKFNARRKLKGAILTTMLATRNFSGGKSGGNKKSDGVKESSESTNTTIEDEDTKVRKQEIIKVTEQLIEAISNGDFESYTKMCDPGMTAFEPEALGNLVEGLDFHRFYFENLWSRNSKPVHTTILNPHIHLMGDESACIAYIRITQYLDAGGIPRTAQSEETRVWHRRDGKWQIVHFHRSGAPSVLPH
From the text: as §1

[8] = molecular target: T8, panel of 371 human kinases (Homo sapiens, UniProt Q6PHR2); conditions: ULK3; 0.1 μM; 10 μM ATP; read-out: % Enzyme Activity (relative to DMSO controls)
T8 construct: purchased Reaction Biology Corp
From the text: as §1

[9] = molecular target: T9, panel of 371 human kinases (Homo sapiens, UniProt Q8WTQ7); conditions: GRK7; 0.1 μM; 10 μM ATP; read-out: % Enzyme Activity (relative to DMSO controls)
T9 construct: purchased Reaction Biology Corp
From the text: as §1

[10] = molecular target: T10, panel of 371 human kinases (Homo sapiens, UniProt P51957); conditions: NEK4; 0.1 μM; 10 μM ATP; read-out: % Enzyme Activity (relative to DMSO controls)
T10 construct: purchased Reaction Biology Corp
T10 sequence (P51957 whole entry): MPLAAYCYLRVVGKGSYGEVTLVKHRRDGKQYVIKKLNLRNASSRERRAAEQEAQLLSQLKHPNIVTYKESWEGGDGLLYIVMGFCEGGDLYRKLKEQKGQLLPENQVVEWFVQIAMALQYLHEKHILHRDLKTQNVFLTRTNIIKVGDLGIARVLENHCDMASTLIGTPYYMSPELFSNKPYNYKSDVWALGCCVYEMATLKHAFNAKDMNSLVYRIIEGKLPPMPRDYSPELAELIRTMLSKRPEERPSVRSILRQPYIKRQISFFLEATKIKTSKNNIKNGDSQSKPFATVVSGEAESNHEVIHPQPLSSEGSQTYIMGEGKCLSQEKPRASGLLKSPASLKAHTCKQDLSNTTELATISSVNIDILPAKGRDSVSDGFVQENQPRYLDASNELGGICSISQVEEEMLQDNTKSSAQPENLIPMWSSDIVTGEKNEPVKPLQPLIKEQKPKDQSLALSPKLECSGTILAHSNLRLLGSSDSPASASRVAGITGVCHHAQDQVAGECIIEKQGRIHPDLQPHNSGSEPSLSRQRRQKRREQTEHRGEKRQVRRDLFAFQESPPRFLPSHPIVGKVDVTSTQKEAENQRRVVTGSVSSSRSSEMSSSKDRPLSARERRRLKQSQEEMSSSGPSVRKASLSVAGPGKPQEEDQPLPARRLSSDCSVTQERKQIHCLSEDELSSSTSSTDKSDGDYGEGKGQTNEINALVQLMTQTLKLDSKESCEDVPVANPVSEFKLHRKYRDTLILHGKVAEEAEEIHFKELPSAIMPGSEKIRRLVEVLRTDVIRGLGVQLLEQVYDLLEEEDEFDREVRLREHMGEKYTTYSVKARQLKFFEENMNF
From the text: as §1

[11] = molecular target: T11, panel of 371 human kinases (Homo sapiens, UniProt Q16644); conditions: MAPKAPK3; 0.1 μM; 10 μM ATP; read-out: % Enzyme Activity (relative to DMSO controls)
T11 construct: purchased Reaction Biology Corp
From the text: as §1

[12] = molecular target: T12, panel of 371 human kinases (Homo sapiens, UniProt Q9H792); conditions: PEAK1; 0.1 μM; 10 μM ATP; read-out: % Enzyme Activity (relative to DMSO controls)
T12 construct: purchased Reaction Biology Corp
From the text: as §1

[13] = molecular target: T13, panel of 371 human kinases (Homo sapiens, UniProt Q16584); conditions: for remaining activity at 0.1 µM: MLK3/MAP3K11, 10 μM ATP, read-out: % Enzyme Activity (relative to DMSO controls)
T13 construct: purchased Reaction Biology Corp
T13 sequence (Q16584 whole entry): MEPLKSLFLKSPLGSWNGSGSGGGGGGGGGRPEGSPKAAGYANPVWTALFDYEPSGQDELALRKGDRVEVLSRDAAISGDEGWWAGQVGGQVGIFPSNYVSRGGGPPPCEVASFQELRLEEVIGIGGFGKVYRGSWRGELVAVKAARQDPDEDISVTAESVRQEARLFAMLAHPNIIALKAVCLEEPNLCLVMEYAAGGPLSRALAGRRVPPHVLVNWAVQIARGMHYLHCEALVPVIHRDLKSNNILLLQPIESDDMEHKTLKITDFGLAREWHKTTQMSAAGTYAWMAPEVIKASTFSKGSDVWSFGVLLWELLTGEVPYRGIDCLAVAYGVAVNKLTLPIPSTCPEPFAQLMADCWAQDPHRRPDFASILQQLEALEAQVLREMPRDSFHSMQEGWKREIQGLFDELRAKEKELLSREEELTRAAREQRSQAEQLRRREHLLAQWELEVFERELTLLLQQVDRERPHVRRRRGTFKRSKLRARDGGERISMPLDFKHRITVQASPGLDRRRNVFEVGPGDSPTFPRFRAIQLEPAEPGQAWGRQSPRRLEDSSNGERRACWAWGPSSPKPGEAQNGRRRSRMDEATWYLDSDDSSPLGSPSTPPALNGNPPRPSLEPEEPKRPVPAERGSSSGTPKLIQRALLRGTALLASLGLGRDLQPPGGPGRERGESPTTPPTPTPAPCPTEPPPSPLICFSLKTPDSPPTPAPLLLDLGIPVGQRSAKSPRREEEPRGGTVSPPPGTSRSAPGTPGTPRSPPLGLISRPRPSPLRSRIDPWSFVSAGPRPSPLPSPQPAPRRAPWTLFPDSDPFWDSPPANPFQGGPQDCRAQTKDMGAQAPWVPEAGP
From the text: as §1

[14] = molecular target: T14, panel of 371 human kinases (Homo sapiens, UniProt P19784); conditions: CK2a2; 0.1 μM; 10 μM ATP; read-out: % Enzyme Activity (relative to DMSO controls)
T14 construct: purchased Reaction Biology Corp
From the text: as §1

[15] = molecular target: T15, panel of 371 human kinases (Homo sapiens, UniProt P78362); conditions: SRPK2; 0.1 μM; 10 μM ATP; read-out: % Enzyme Activity (relative to DMSO controls)
T15 construct: purchased Reaction Biology Corp
From the text: as §1

[16] = molecular target: T16, panel of 371 human kinases (Homo sapiens, UniProt Q9UF33); conditions: EPHA6; 0.1 μM; 10 μM ATP; read-out: % Enzyme Activity (relative to DMSO controls)
T16 construct: purchased Reaction Biology Corp
From the text: as §1

[17] = molecular target: T17, panel of 371 human kinases (Homo sapiens, UniProt Q9Y463); conditions: DYRK1B; 0.1 μM; 10 μM ATP; read-out: % Enzyme Activity (relative to DMSO controls)
T17 construct: purchased Reaction Biology Corp
From the text: as §1

[18] = molecular target: T18, panel of 371 human kinases (Homo sapiens, UniProt Q13177); conditions: PAK2; 0.1 μM; 10 μM ATP; read-out: % Enzyme Activity (relative to DMSO controls)
T18 construct: purchased Reaction Biology Corp
From the text: as §1

[19] = molecular target: T19, panel of 371 human kinases (Homo sapiens, UniProt Q6DT37); conditions: DMPK2; 0.1 μM; 10 μM ATP; read-out: % Enzyme Activity (relative to DMSO controls)
T19 construct: purchased Reaction Biology Corp
From the text: as §1

[20] = molecular target: T20, panel of 371 human kinases (Homo sapiens, UniProt P16591); conditions: FER; 0.1 μM; 10 μM ATP; read-out: % Enzyme Activity (relative to DMSO controls)
T20 construct: purchased Reaction Biology Corp
From the text: as §1

[21] = molecular target: T21, panel of 371 human kinases (Homo sapiens, UniProt P31749); conditions: AKT1; 0.1 μM; 10 μM ATP; read-out: % Enzyme Activity (relative to DMSO controls)
T21 construct: purchased Reaction Biology Corp
From the text: as §1

[22] = molecular target: T22, panel of 371 human kinases (Homo sapiens, UniProt P35626); conditions: GRK3; 0.1 μM; 10 μM ATP; read-out: % Enzyme Activity (relative to DMSO controls)
T22 construct: purchased Reaction Biology Corp
From the text: as §1

[23] = molecular target: T23, panel of 371 human kinases (Homo sapiens, UniProt P53355); conditions: DAPK1; 0.1 μM; 10 μM ATP; read-out: % Enzyme Activity (relative to DMSO controls)
T23 construct: purchased Reaction Biology Corp
From the text: as §1

[24] = molecular target: T24, panel of 371 human kinases (Homo sapiens, UniProt P54756); conditions: EPHA5; 0.1 μM; 10 μM ATP; read-out: % Enzyme Activity (relative to DMSO controls)
T24 construct: purchased Reaction Biology Corp
T24 sequence (P54756 25-1037): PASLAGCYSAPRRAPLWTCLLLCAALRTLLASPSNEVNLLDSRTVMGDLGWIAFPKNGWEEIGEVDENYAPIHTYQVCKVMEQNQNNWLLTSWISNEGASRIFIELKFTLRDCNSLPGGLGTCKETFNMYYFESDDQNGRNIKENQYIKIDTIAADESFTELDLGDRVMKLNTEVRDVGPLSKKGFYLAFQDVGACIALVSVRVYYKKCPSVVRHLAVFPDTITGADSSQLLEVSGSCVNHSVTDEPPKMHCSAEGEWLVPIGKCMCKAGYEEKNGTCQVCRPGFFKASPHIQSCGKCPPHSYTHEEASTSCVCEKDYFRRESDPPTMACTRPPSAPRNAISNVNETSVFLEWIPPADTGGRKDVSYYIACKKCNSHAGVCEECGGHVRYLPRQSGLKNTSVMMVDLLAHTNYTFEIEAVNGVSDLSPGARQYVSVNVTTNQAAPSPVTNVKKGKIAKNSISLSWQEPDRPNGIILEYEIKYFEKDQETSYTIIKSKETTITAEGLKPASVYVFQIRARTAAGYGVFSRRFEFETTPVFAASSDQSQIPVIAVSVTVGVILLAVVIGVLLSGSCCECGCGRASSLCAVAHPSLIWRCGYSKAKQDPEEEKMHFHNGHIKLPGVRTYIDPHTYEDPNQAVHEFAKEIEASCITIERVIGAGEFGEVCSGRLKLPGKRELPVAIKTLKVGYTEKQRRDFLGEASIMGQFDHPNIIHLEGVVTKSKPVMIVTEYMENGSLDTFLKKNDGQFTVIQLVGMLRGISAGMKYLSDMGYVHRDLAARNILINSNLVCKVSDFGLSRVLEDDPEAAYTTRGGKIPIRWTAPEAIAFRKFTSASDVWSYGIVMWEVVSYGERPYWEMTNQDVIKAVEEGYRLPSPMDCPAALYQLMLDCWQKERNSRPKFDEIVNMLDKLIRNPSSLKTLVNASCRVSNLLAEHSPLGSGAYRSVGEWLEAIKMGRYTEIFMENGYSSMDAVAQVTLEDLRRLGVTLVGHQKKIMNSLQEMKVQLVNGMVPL
From the text: as §1

SMILES	remaining activity at 0.1 µM [1]	remaining activity at 0.1 µM [2]	remaining activity at 0.1 µM ([3]; CDK6/cyclin D1)	remaining activity at 0.1 µM ([3]; CDK6/cyclin D3)	remaining activity at 0.1 µM [4]	remaining activity at 0.1 µM [5]	remaining activity at 0.1 µM [6]	remaining activity at 0.1 µM [7]	remaining activity at 0.1 µM [8]	remaining activity at 0.1 µM [9]	remaining activity at 0.1 µM [10]	remaining activity at 0.1 µM [11]	remaining activity at 0.1 µM [12]	remaining activity at 0.1 µM [13]	remaining activity at 0.1 µM [14]	remaining activity at 0.1 µM [15]	remaining activity at 0.1 µM [16]	remaining activity at 0.1 µM [17]	remaining activity at 0.1 µM [18]	remaining activity at 0.1 µM [19]	further results
CN1CCN(Cc2ccc(-c3cnc4[nH]cc(-c5ccc6[nH]ccc6c5)c4c3)cc2)CC1 [Compound 1, 3-(1H-Indol-5-yl)-5-(4-((4-methylpiperazin-1-yl)methyl)phenyl)-1H-pyrrolo[2,3-b]pyridine, reference compound]	85.2%	104%	63.1%	92.2%	106%	73%	100%	101%	70%	101%	89.8%	101%	109%	56.4%	84.3%	80.3%	106%	43.2%	97.1%	76.8%	remaining activity at 0.025 µM ([13]; 0.025 μM, read-out: MLK3 activity remaining): 56.4%; remaining activity at 0.1 µM [20]: 94.8%; remaining activity at 0.1 µM [21]: 97%; remaining activity at 0.1 µM [22]: 106%; remaining activity at 0.1 µM [23]: 96.3%; remaining activity at 0.1 µM [24]: 94.2%
OCCN1CCN(Cc2ccc(-c3cnc4[nH]cc(-c5cccc(Cl)c5)c4c3)cc2)CC1 [Compound 12k, 2-(4-(4-(3-(3-Chlorophenyl)-1H-pyrrolo[2,3-b]pyridin-5-yl)benzyl)piperazin-1-yl)ethan-1-ol]	93.5%	103%	30.7%	68.2%	95.4%	73.2%	95.9%	110%	41.5%	97.1%	87.4%	96.7%	101%	67%	89%	93.6%	98.2%	38.3%	85%	61.3%	remaining activity at 0.1 µM [20]: 103%; remaining activity at 0.1 µM [21]: 101%; remaining activity at 0.1 µM [22]: 104%; remaining activity at 0.1 µM [23]: 95.4%; remaining activity at 0.1 µM [24]: 98.8%
